In patent US20090221559A1 (priority 2005, published 2009):
Where two headings read alike, the source gives them in different places.

Key:
[1] = target: T1, HCV NS5B polymerase (His-tagged, C-terminal 21 amino acid deleted NS5B, HC-J4) (Hepatitis C virus genotype 1b, UniProt O92972); experiment: NS5b polymerase assay (biochemical RdRp assay, 3H-GTP incorporation, SPA beads); design: species or system HCV genotype 1b
T1 construct: The cDNA encoding NS5B amino acid 1-570 (HC-J4, genotype 1b); His tag (His6, from pET-21b) (C); made in house; host or cells: E. coli BL21 (DE3)
T1 sequence (O92972 2417-3000, looked up, stated change not applied): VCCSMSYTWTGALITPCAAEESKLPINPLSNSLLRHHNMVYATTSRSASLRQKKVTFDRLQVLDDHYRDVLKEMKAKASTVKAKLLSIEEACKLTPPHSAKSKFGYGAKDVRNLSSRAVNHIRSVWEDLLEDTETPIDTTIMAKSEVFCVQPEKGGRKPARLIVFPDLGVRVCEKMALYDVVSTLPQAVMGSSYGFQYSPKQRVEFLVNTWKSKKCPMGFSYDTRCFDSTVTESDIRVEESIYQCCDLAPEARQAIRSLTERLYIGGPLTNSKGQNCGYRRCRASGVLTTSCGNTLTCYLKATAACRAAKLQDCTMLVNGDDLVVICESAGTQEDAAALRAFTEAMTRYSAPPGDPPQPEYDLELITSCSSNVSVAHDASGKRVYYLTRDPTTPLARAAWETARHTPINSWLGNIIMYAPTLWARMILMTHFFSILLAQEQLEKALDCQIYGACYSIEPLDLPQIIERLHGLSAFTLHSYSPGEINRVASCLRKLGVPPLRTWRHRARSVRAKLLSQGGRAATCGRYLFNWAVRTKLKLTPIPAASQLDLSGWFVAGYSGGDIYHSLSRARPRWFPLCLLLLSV
How it was run: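 3H-GTP incorporation into newly made RNA was captured on SPA beads added in EDTA after 2 h at 25 °C. Compounds in DMSO met preformed enzyme–template complex (200 nM truncated His-NS5B, HC-J4 1b; biotin-oligo(rG13)/poly(rC)) for 15 min at RT, then 600 nM GTP, 5 mM MgCl2, Tris pH 7.5 started polymerization.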

[2] = test system: HCV replicon RNA replication in Huh-7 luc/neo (Huh-Luc) cells; experiment: HCV replicon assay (stable replicon cell reporter assay, luciferase read-out); format: cell-based, HCV type 1b
How it was run: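 Three-day compound exposure used Huh-Luc cells, which harbour an autonomously replicating genotype 1b NS3-NS5B replicon expressing luciferase and neo^R. Luciferase signal served as the replication read-out, and dose-response curves came from several concentrations per compound.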

[3] = NS5B Polymerase Assay IC50, 200 nM enzyme, 3H-GTP incorporation, 2 h at 25° C.
[4] = Hepatitis C virus, Huh-7, 72 h, read-out: Replicon Assay EC50, Huh-Luc cells, three days incubation, luciferase activity
[5] = NS5B Polymerase Assay IC50 (μM)
[6] = Hepatitis C virus, Huh-7, 72 h, read-out: Replicon Assay EC50 (μM), Huh-Luc cells, incubation of three days, luciferase activity
[7] = 200 nM enzyme, 3H-GTP incorporation, 2 h at 25° C., read-out: NS5B Polymerase Assay IC50
[8] = Huh-Luc cells, three days incubation, luciferase activity, read-out: Replicon Assay EC50
[9] = read-out: Replicon Assay EC50, Huh-Luc cells, three days incubation, luciferase activity

Row | SMILES | IC50 [1, 3] [µM] | EC50 [2, 4] [µM] | further results
1 | CC(=O)N1c2ccccc2NC2=C(C(=O)CC(C)(C)C2)C1c1ccc(OC(C)C)cc1 (stereo not drawn) [compound 114] | > 42.7 | > 32 | 
2 | CC1(C)CC(=O)C2=C(C1)Nc1ccccc1NC2c1ccc(OCc2ccccc2)cc1 (stereo not drawn) [compound 426] |  |  | IC50 [1, 5]: 30.8 µM; EC50 [2, 6]: 7.31 µM
3 | COc1ccc(C2C3=C(CC(c4ccc(C)cc4)CC3=O)Nc3ccccc3N2C(=O)c2ccccc2)cc1 (mixture of isomers) [compound 188] |  |  | IC50 [1, 7]: > 33.3 µM; EC50 [2, 8]: 5.16 µM
4 | CCCCOc1ccc(C2C3=C(CC(C)(C)CC3=O)Nc3ccccc3N2C(C)=O)cc1 (stereo not drawn) [compound 127] | > 42.7 | 11.5 | 
5 | CC(=O)N1c2ccccc2NC2=C(C(=O)CC(c3ccccc3OCc3ccccc3)C2)C1c1cccc(OCc2ccccc2)c1 (single isomer, unassigned) [compound 189] | > 42.7 |  | EC50 [2, 9]: 3.99 µM
6 | CC(=O)N1c2ccccc2NC2=C(C(=O)CC(c3ccccc3OCc3ccccc3)C2)C1C(Br)=Cc1ccccc1 (mixture of isomers) [compound 299] | > 133 | 2.36 | 
7 | CC(=O)N1c2cc(F)c(F)cc2NC2=C(C(=O)CC(C)(C)C2)C1c1ccc(Cl)cc1Cl (stereo not drawn) [compound 310, 10-acetyl-7,8-difluoro-11-(2,4-dichlorophenyl)-3,3-dimethyl-2,3,4,5,10,11-hexahydro-1H-dibenzo[b,e][1,4]diazepin-1-one] | 14.5 | 16.4 | 
8 | CCCCCC(=O)N1c2ccccc2NC2=C(C(=O)CC(c3ccc(OC)c(OC)c3)C2)C1c1cccc([N+](=O)[O-])c1 (mixture of isomers) [compound 181] |  |  | IC50 [1, 7]: > 33.3 µM; EC50 [2, 8]: 2.41 µM
9 | COC(=O)CN1c2ccccc2NC2=C(C(=O)CC(C)(C)C2)C1c1ccc(Cl)cc1Cl (stereo not drawn) [compound 510] |  |  | IC50 [1, 5]: > 133 µM; EC50 [2, 6]: 4.56 µM
10 | CC1(C)CC(=O)C2=C(C1)Nc1ccccc1N(C(=O)Cc1ccccc1)C2c1c(F)cccc1Cl (stereo not drawn) [compound 69] | > 42.7 | 4.58 | 
11 | CC1(C)CC(=O)C2=C(C1)Nc1ccccc1N(C(=O)Cc1ccccc1)C2c1ccc2c(c1)OCO2 (stereo not drawn) [compound 275] | > 42.7 | 10.1 | 
12 | CC(=O)N1c2ccccc2NC2=C(C(=O)CC(C)(C)C2)C1c1ccccc1OCc1ccccc1 (stereo not drawn) [compound 19] | > 42.7 |  | EC50 [2, 9]: > 32 µM
13 | COc1ccc([C@@H]2CC(=O)C3=C(C2)Nc2ccccc2N[C@H]3c2ccc(C)s2)cc1 [compound 490] |  |  | IC50 [1, 5]: > 42.7 µM; EC50 [2, 6]: 24.9 µM
14 | COc1cccc(C2C3=C(CC(C)(C)CC3=O)Nc3ccccc3N2C(C)=O)c1 (stereo not drawn) [compound 105] | > 42.7 | > 32 | 
15 | CCC(=O)N1c2ccccc2NC2=C(C(=O)CC(c3ccc(OC)cc3)C2)C1c1ccc(OC)cc1 (stereo not drawn) [compound 223] | > 42.7 | 25 | 
16 | O=C1CC(c2ccccc2OCc2ccccc2)CC2=C1C(c1cccc(OCc3ccccc3)c1)Nc1ccccc1N2 (single isomer, unassigned) [compound 418, 3-(2-Benzyloxyphenyl)-11-(3-benzyloxyphenyl)-2,3,4,5,10,11-hexahydro-dibenzo[b,e][1,4]diazepin-1-one] |  |  | IC50 ([1]; read-out: NS5B Polymerase Assay IC50): > 42.7 µM; EC50 ([2]; read-out: Replicon Assay EC50, Huh-Luc cells, incubation of three days, luciferase activity): 2.16 µM
17 | O=C1CC(c2ccc(Cl)cc2)CC2=C1C(c1ccc(Cl)c(Cl)c1)Nc1ccccc1N2 (stereo not drawn) [compound 355] |  |  | IC50 [1, 5]: > 42.7 µM; EC50 [2, 6]: 5.48 µM
18 | COc1cccc(C2C3=C(CC(C)(C)CC3=O)Nc3ccccc3N2C(=O)Cc2ccccc2)c1 (stereo not drawn) [compound 82] | > 42.7 | 6.8 | 
19 | Cc1ccc(C2CC(=O)C3=C(C2)Nc2ccccc2N(C(=O)c2ccccc2)C3c2ccccc2)cc1 (mixture of isomers) [compound 209] |  |  | IC50 [1, 7]: > 33.3 µM; EC50 [2, 8]: 11.8 µM
20 | CC1(C)CC(=O)C2=C(C1)Nc1ccccc1N(C(=O)C1CC1)C2c1ccc(Cl)cc1Cl (stereo not drawn) [compound 53] | 19.7 | > 32 | 
21 | COc1ccc(C2CC(=O)C3=C(C2)Nc2ccccc2NC3c2ccccc2Cl)cc1 (stereo not drawn) [compound 383] |  |  | IC50 [1, 5]: > 42.7 µM; EC50 [2, 6]: 17.3 µM
